Data published in patent US20070238617A1, “Diamino-1,3,5-triazines N-substituted with bicyclic radicals, process for their preparation, compositions thereof, and their use as herbicides and plant growth regulators” (Bayer CropScience AG, priority 2006, published 2007).

Assays:
[1] = system: harmful plants such as Stellaria media, Lolium multiforum, Amaranthus retroflexus, Sinapis alba, Avena sativa and Setaria viridis; test: Pre-emergence effect on weeds (greenhouse pot test); assay type: in vivo; conditions: application rate of 0.5 kg or less of active ingredient per hectare; applied to soil cover; scored visually after 3 to 4 weeks vs untreated controls
Excerpt: Seeds or rhizome pieces of monocotyledonous and dicotyledonous weed plants were placed in sandy loam in plastic pots and covered with soil. The compounds according to the invention, which were formulated in the form of wettable powders or emulsion concentrates, were then applied to the surface of the soil cover as aqueous suspension or emulsion at various dosages with an application rate of 600 to 800 l of water per ha (converted).

[2] = system: harmful plants such as Sinapis alba, Echinochloa crus-galli, Lolium multiflorum, Stellaria media, Cyperus iria, Amaranthus retroflexus, Setaria viridis, Avena …; test: Post-emergence effect on weeds (greenhouse pot test); assay type: in vivo; conditions: application rate of 2 kg or less of active ingredient per hectare; sprayed in the three-leaf stage; scored visually after approx. 3 to 4 weeks vs untreated controls
Experimental: Seeds or rhizome pieces of monocotyledonous and dicotyledonous weeds were placed in sandy loam in plastic pots, covered with soil and grown in the greenhouse under good growth conditions. Three weeks after sowing, the test plants were treated in the three-leaf stage. Various dosages of the compounds according to the invention, which were formulated as wettable powders or emulsion concentrates, were sprayed to the green plant parts at an application rate of 600 to 800 l of water per ha (converted). After the test plants have been left to stand in the greenhouse for approx. 3 to 4 weeks under optimal growth conditions, the effect of the preparations was scored visually by comparison with untreated controls. Compound nos.

[3] = system: plantation crops such as oil palm, coconut palm, India-rubber tree, citrus, pineapples, cotton, coffee, cocoa and vines; test: Weed control in plantation crops (field trials, crop tolerance); assay type: in vivo; conditions: natural weed infestation, various dosages, even at high rates of active substance
Experimental: In further field trials plantation crops were grown under conditions of natural weed infestation and sprayed with various dosages of the substances of formula (I) according to the invention.

SMILES	pre-emergence control of harmful plants [1]	herbicidal post-emergence activity against harmful plants [2]	damage to plantation crops (visual assessment) [3]	melting point [°C]
Cc1cc(C)c2c(c1)C(Nc1nc(N)nc(C(F)F)n1)CCC2 (racemic) [Compound 1.5]	very good pre-emergence control	very good herbicidal post-emergence activity	unharmed	
Cc1cccc2c1OCCC2Nc1nc(N)nc(C(F)F)n1 (racemic) [Compound 1.205]	very good pre-emergence control	very good herbicidal post-emergence activity	unharmed	
Cc1ccc2c(c1)[C@H](Nc1nc(N)nc(C(F)F)n1)CC2 [Compound 2.1]	very good pre-emergence control	very good herbicidal post-emergence activity	unharmed	
Cc1ccc2c(c1)[C@H](Nc1nc(N)nc(C(F)F)n1)CCC2 [Compound 2.2]	very good pre-emergence control	very good herbicidal post-emergence activity	unharmed	
Cc1ccc2c(c1)[C@H](Nc1nc(N)nc(C(F)F)n1)CCO2 [Compound 2.3]	very good pre-emergence control	very good herbicidal post-emergence activity	unharmed	
Cc1cc(C)c2c(c1)[C@H](Nc1nc(N)nc(C(F)F)n1)CCC2 [Compound 2.5]	very good pre-emergence control	very good herbicidal post-emergence activity	unharmed	
Nc1nc(N[C@@H]2CCOc3c(F)cccc32)nc(C(F)F)n1 [Compound 2.206, 6-(Difluoromethyl)-N-[(4R)-8-fluoro-3,4-dihydro-2H-chromen-4-yl]-1,3,5-triazine-2,4-diamine]	very good pre-emergence control	very good herbicidal post-emergence activity	unharmed	
Cc1ccc2c(c1)[C@H](Nc1nc(N)nc(C(F)F)n1)[C@@H](C)C2 [Compound 3.1, 6-(difluoromethyl)-N-[(1R,2S)-2,6-dimethyl-2,3-dihydro-1H-inden-1-yl]-1,3,5-triazine-2,4-diamine]	very good pre-emergence control	very good herbicidal post-emergence activity	unharmed	132 to 134
CC[C@H]1Cc2ccc(C)cc2[C@@H]1Nc1nc(N)nc(C(F)F)n1 [Compound 3.31]	very good pre-emergence control	very good herbicidal post-emergence activity	unharmed	
C[C@H]1Cc2ccc(Br)cc2[C@@H]1Nc1nc(N)nc(C(F)F)n1 [Compound 3.82]	very good pre-emergence control	very good herbicidal post-emergence activity	unharmed	
CC(=O)Nc1nc(N[C@H]2c3cc(C)ccc3C[C@@H]2C)nc(C(F)F)n1 [Compound 3.106]	very good pre-emergence control	very good herbicidal post-emergence activity	unharmed	
CCC(=O)Nc1nc(N[C@H]2c3cc(C)ccc3C[C@@H]2C)nc(C(F)F)n1 [Compound 3.109, N-(4-(difluoromethyl)-6-{[(1R,2S)-2,6-dimethyl-2,3-dihydro-1H-inden-1-yl]-amino}-1,3,5-triazin-2-yl)propanamide]	very good pre-emergence control	very good herbicidal post-emergence activity	unharmed	
Cc1ccc2c(c1)[C@H](Nc1nc(NC(=O)C(C)(C)C)nc(C(F)F)n1)[C@@H](C)C2 [Compound 3.112]	very good pre-emergence control	very good herbicidal post-emergence activity	unharmed	
Cc1ccc2c(c1)[C@H](Nc1nc(NC=O)nc(C(F)F)n1)[C@@H](C)C2 [Compound 3.118, N-[4-(difluoromethyl)-6-{[(1R,2S)-2,6-dimethyl-2,3-dihydro-1H-inden-1-yl]amino}-1,3,5-triazin-2-yl]-formamide]				66
